Assay results as given in patent US20010039255A1, “Use of alpha1A adrenoceptor agonists with alpha1B and alpha1D antagonism for the treatment of stress urinary incontinence” (priority 2000, published 2001).
Where two headings read alike, the source gives them in different places.

Assays:
[1] = target: T1, α1d (rat receptor expressed in mouse fibroblasts) (Rattus norvegicus, UniProt P23944); assay: Radioligand binding with [3H]-prazosin, α1d (rat receptor expressed in mouse fibroblasts)
T1 construct: expressed in transfected cells; host or cells: mouse fibroblasts
T1 sequence (P23944 1-561): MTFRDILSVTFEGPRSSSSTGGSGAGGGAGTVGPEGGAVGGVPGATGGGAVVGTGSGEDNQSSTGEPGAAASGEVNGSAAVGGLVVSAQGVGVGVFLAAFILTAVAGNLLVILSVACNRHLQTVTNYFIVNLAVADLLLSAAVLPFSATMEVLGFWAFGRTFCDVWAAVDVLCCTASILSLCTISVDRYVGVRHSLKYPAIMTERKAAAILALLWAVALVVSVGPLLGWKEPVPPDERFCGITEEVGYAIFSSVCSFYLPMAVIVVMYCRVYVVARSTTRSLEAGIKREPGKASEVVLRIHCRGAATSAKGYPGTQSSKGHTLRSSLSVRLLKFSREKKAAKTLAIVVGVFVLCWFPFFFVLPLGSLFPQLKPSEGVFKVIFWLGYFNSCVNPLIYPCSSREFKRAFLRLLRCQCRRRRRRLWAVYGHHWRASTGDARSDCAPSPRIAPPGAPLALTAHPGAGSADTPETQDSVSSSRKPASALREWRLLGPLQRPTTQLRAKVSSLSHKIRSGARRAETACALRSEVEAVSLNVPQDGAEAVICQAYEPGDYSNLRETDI

[2] = target: T2, α1B adrenoceptor (rat spleen) (Rattus norvegicus, UniProt P15823); settings: for α1B r: Schild plot regression correlation; for α1B slope: Schild plot slope; for type of antagonism at α1B: based on slope and regression (r) of Schild plot
T2 sequence (P15823 1-515): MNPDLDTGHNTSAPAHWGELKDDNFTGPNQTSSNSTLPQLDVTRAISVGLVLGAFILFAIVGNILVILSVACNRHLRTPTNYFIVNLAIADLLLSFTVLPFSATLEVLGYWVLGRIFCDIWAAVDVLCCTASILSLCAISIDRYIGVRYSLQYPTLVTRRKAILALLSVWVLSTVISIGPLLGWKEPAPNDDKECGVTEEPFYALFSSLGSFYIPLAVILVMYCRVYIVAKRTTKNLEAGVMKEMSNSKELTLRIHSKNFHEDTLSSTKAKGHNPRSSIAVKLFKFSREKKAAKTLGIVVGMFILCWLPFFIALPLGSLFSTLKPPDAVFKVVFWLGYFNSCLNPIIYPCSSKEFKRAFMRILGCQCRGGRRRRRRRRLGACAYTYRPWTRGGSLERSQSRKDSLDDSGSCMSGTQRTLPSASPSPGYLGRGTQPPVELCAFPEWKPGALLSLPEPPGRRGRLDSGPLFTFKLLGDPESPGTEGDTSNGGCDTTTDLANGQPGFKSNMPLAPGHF
Source text: A cumulative concentration protocol was employed.

[3] = target: T3, α1A (rat submaxillary gland) (Rattus norvegicus, UniProt P43140); assay: Radioligand binding with [3H]-prazosin, α1A (rat submaxillary gland)
T3 construct: from tissue; host or cells: rat submaxillary gland
T3 sequence (P43140 1-466): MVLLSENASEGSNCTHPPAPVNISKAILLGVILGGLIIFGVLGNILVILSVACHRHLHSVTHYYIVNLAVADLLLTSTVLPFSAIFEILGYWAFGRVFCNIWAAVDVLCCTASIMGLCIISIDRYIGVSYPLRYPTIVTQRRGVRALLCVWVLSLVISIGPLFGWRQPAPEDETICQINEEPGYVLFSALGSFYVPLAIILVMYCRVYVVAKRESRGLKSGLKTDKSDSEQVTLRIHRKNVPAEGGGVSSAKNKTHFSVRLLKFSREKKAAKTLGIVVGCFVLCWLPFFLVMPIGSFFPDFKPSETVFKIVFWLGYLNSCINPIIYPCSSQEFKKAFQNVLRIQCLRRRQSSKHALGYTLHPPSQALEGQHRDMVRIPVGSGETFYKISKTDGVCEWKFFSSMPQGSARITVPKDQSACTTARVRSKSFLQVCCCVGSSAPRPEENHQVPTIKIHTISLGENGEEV

[4] = target: T4, α1D adrenoceptor (rat aorta) (Rattus norvegicus, UniProt P23944); settings: for α1D r: Schild plot regression correlation; for α1D slope: Schild plot slope; for type of antagonism at α1D: based on slope and regression (r) of Schild plot; for α1D efficacy: percent of phenylephrine (100%) contraction
T4 sequence (P23944 1-561): T1 sequence (P23944 1-561)

[5] = target: T5, α1b (hamster receptor expressed in mouse fibroblasts) (Mesocricetus auratus, UniProt P18841); assay: Radioligand binding with [3H]-prazosin, α1b (hamster receptor expressed in mouse fibroblasts)
T5 construct: expressed in transfected cells; host or cells: mouse fibroblasts
T5 sequence (P18841 1-515): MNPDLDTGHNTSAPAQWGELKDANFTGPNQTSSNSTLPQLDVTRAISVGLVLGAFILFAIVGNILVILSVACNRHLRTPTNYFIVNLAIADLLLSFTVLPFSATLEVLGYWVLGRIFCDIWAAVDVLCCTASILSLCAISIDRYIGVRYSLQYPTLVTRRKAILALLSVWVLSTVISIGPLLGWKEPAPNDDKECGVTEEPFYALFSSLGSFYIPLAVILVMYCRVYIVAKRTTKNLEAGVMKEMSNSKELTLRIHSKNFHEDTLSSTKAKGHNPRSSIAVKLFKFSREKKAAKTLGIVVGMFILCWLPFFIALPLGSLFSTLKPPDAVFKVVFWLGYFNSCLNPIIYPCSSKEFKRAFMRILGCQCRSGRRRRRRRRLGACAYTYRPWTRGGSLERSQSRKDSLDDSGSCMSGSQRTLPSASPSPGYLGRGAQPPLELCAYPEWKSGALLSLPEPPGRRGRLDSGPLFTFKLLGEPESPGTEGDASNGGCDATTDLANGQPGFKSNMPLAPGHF
Source text: Radioligand Binding Ki (nM)
Exp. Ther. (1995), 274, 97-103.

Female Beagle dogs = settings: for IUP ED5mmHg: dose producing 5 mmHg increase in intraurethral pressure; for effect on intraurethral pressure and mean arterial pressure: increasing i.v. doses, dogs, FIGS. 1-4
Source text: Female Beagle dogs (Marshall Farms, North Rose, N.Y.) greater that 2 years of age and weighing between 12 and 15 kg were used in these studies. At least 2 weeks prior to any agonist dosing, dogs were instrumented for the chronic measurement of arterial blood pressure by implanting a telemetry transducer/transmitter (TA11PA-C40, Data Sciences International, St. Paul, Minn.) into a carotid artery.
On the test day, dogs fasted since the previous afternoon were pre-anesthetized with thiopental sodium 15 mg/kg i.v. (Pentothal™, Abbott) and intubated. Anesthesia was maintained by allowing the dog to spontaneously breathe a mixture of isoflurane (2.5 to 3 volume %) and oxygen delivered by a Narkomed Standard anesthesia system (North American Drager, Telford, Pa.). An Abbocath-T™ i.v. catheter (18-G, Abbott Laboratories, Abbott Park, Ill.) was inserted into the cephalic vein for the administration of agonists. A telemetry receiver (RA1310, DataSciences) was placed under the head of each dog and was interfaced to a computerized data acquisition system (Modular Instruments Inc.(MI2), Malvern, Pa.) which allowed for the continuous calibrated recording of arterial blood pressure which was electronically filtered to determine its mean value (MAP).
Intraurethral pressure was monitored using a balloon catheter technique previously described (Brune et al., Drug Development Research 34:267-275,1995). Briefly, a 7 Fr catheter balloon catheter (41224-01, Abbott) was inserted into the urethral orifice and advanced approximately 15 cm until the tip was well inside the bladder. The balloon was then inflated with 1 ml of room air and the catheter slowly withdrawn until resistance (corresponding to the bladder neck) was evident. The balloon was then deflated and the catheter withdrawn an additional 2 cm. The balloon was then reinflated and its catheter port connected to a Gould Statham P23Dd pressure transducer interfaced to a computerized data acquisition system (Modular Instruments, Inc., Malvern, Pa.) for the measurement of intraurethral pressure (IUP). The MAP and IUP pressor responses to increasing iv doses of test agonists were obtained simultaneously. The pressor effects of each dose were allowed to return to baseline before the next dose was given.
The dose required to elicit significant and clinically meaningful changes in IUP (5 mm Hg) relative to the dose required to elicit a physiologically significant increase in blood pressure (20 mm Hg) is calculated.
IUP and MAP pressor effects of each agonist dose were expressed as the maximum net change in each pressure over pre-dose baseline levels. Subsequently, the effective doses required to produce a 5 mmHg increase in IUP (IUP ED5mmHg) and a 20 mmHg increase in MAP (MAP ED20mmHg) were estimated from the dose response data from each dog. Relative urethral versus vascular selectivity of each agonist in each dog was estimated using a ratio of these respective potency indices (MAP ED20mmHg/IUP ED5mmHg).

[6] = target: T4, α1D adrenoceptor (rat aorta); assay: cell-based
[7] = target: T6, α1A adrenoceptor (rabbit urethra) (Oryctolagus cuniculus, UniProt O02824); assay: Rabbit urethra α1A subtype tissue bath; assay type: cell-based
T6 sequence (O02824 1-466): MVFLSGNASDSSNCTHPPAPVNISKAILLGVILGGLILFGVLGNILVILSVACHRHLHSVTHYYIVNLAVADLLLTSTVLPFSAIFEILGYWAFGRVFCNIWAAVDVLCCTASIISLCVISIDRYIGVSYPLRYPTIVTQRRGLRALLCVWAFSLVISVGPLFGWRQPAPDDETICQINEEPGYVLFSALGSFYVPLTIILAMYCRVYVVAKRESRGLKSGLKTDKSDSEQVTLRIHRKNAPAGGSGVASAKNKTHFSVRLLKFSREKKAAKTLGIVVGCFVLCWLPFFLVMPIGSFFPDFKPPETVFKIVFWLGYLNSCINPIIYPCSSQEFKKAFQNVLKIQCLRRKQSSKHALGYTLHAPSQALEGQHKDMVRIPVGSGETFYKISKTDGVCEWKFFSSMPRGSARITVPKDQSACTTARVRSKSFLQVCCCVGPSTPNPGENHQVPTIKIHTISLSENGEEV
Source text: Rabbit Urethra α1A Subtype
A cumulative concentration protocol was employed. […] Br. J. Pharmacol. 14, 48-58.

[8] = i.v., anesthetized dogs, mean ± S.E.M
[9] = i.v., anesthetized dogs, dose producing 20 mmHg increase in mean arterial pressure, mean ± S.E.M

CCS(=O)(=O)Nc1cccc(Cc2c[nH]cn2)c1C [Compound A-286569]
Ki [1]: 0.84 ± 0.078 µM
α1B r ([2]; rat spleen): 0.6
α1B slope ([2]; rat spleen): 1.3
type of antagonism at α1B [2]: non-competitive antagonist
Ki [3]: 0.15 ± 0.032 µM
α1D r ([4]; rat aorta): 0.5
α1D slope ([4]; rat aorta): 1.1
type of antagonism at α1D [4]: non-competitive antagonist
Ki [5]: > 10 µM
IUP ED5mmHg (Female Beagle dogs; [8]): 41.9 ± 6.2 nmol/kg
MAP ED20mmHg (Female Beagle dogs; [9]): 201.6 ± 67 nmol/kg
effect on intraurethral pressure and mean arterial pressure (Female Beagle dogs): dose-dependent increases

CS(=O)(=O)Nc1c(O)ccc2c1CCCC2C1=NCCN1 (centres unmarked) [Compound A-61603, reference compound]
Ki [1]: 1.56 ± 0.169 µM
EC50 [6]: 2.51 µM
α1D efficacy ([4]; rat aorta): 100%
Ki ([5]; hamster receptor expressed in mouse fibroblasts, [3H]-prazosin, read-out: Radioligand Binding Ki α1b (Hamster)): 1.21 µM
MAP ED20mmHg (Female Beagle dogs; female, Beagle, dog, in vivo, iv): 0.27 ± 0.05 nmol/kg
IUP ED5mmHg (Female Beagle dogs; [8]): 0.16 ± 0.02 nmol/kg
effect on intraurethral pressure and mean arterial pressure (Female Beagle dogs): dose-dependent increases

CC(N)C(O)c1ccccc1 (centres unmarked) [PPA, phenylpropanolamine, reference compound]
α1d binding (in words) ([1]; rat receptor expressed in mouse fibroblasts, [3H]-prazosin): weak adrenergic ligand
α1A agonist activity (in words) [7]: weak agonist
α1A efficacy ([7]; percent of phenylephrine (100%) contraction): 68%
α1B efficacy ([2]; percent of phenylephrine (100%) contraction, rat spleen): 34%
α1B agonist activity (in words; merged pD2/efficacy cell) ([2]; rat spleen): weak agonist
Radioligand Binding Ki α1A (Rat) ([3]; rat submaxillary gland, [3H]-prazosin): weak adrenergic ligand
α1D efficacy ([4]; rat aorta): 91%
α1D agonist activity (in words; merged pD2/efficacy cell) ([4]; rat aorta): weak agonist
α1b binding (in words) ([5]; hamster receptor expressed in mouse fibroblasts, [3H]-prazosin): weak adrenergic ligand
Selectivity ratio MAP ED20/IUP ED5 (Female Beagle dogs; calculated for each dog and then averaged): 0.4
IUP ED5mmHg (Female Beagle dogs; [8]): 1092 ± 384 nmol/kg
MAP ED20mmHg (Female Beagle dogs; [9]): 331 ± 80 nmol/kg
effect on intraurethral pressure and mean arterial pressure (Female Beagle dogs): dose-dependent increases

CCS(=O)(=O)Nc1cccc(Cc2c[nH]cn2)c1 [Compound A-286666]
Ki [1]: 0.287 ± 0.041 µM
α1B r ([2]; rat spleen): 0.9
α1B slope ([2]; rat spleen): 0.81
type of antagonism at α1B [2]: competitive antagonist
Ki [3]: 0.137 ± 0.015 µM
α1D r ([4]; rat aorta): 0.9
α1D slope ([4]; rat aorta): 0.93
type of antagonism at α1D [4]: competitive antagonist
Ki [5]: 0.913 ± 0.135 µM
